According to PMC11811597, “Phenomics‐Based Discovery of Novel Orthosteric Choline Kinase Inhibitors” (Angewandte Chemie (International Ed. in English), 2025):

System: U2OS cells
Test: Cell Painting Assay (CPA)
Format: cell-based, human
Description: The described assay follows closely the method described by Bray et al.[15] Initially, 5 µL U2OS medium were added to each well of a 384-well plate (Revvity Phenoplate 384).
Subsequently, U2OS cell were seeded with a density of 1600 cells per well in 20 µL medium. The plate was incubated for 10 min at the ambient temperature, followed by an additional 4 h incubation (37 °C, 5% CO2). Compound treatment was performed with the Echo 520 acoustic dispenser (Beckman-Coulter) followed by incubation for 20 h (37 °C, 5% CO2). Subsequently, mitochondria were stained with Mito Tracker Deep Red (Thermo Fisher Scientific, Cat. No. M22426). The Mito Tracker Deep Red stock solution (1 mM) was diluted to a final concentration of 100 nM in prewarmed medium. The medium was removed from the plate leaving 10 µL residual volume and 25 µL of the Mito Tracker solution were added to each well. The plate was incubated for 30 min in darkness (37 °C, 5% CO2). To fix the cells […] of 18.5 % formaldehyde in PBS were added, resulting in a final formaldehyde concentration of […]. Subsequently, the plate was incubated for another 20 min in darkness (RT) and washed three times with 70 µL of PBS. (Agilent Washer Elx405). Cells were permeabilized by addition of 25 µL 0.1% Triton X-100 to each well, followed by 15 min incubation (RT) in darkness. The cells were washed three times with PBS leaving a final volume of 10 µL. To each well 25 µL of a staining solution were added, which contains 1% BSA, 5 µL/ml Phalloidin (Alexa594 conjugate, Thermo Fisher Scientific, A12381), 25 µg/ml Concanavalin A (Alexa488 conjugate, Thermo Fisher Scientific, Cat. No.
(Thermo Fisher Scientific, Cat. No. W11262) and 1.5 µM SYTO 14 solution (Thermo Fisher Scientific, Cat. No. S7576). The plate is incubated for 30 min (RT) in darkness and washed three times with 70 µl
PBS. After the final washing step, the PBS was not aspirated. The plates were sealed and centrifuged […]
The plates were prepared in triplicates with shifted layouts to reduce plate effects and imaged using a Micro XL High-Content Screening System (Molecular Devices) in 5 channels (DAPI: Ex350-400/ […]
The generated images were processed with the CellProfiler package (https://cellprofiler.org/, version 3.0.0) on a computing cluster of the Max Planck Society to extract 1716 cell features per microscope site. The data was then further aggregated as medians per well (9 sites -> 1 well), then over the three […]
Further analysis was performed with custom Python (https://www.python.org/) scripts using the Pandas (https://pandas.pydata.org/) and Dask (https://dask.org/) data processing libraries as well as the Scientific Python (https://scipy.org/) package (separate publication to follow).
From the total set of 1716 features, a subset of highly reproducible and robust features was determined using the procedure described by Woehrmann et al.[16] in the following way:
Two biological repeats of one plate containing reference compounds were analysed. For every feature, its full profile over each whole plate was calculated. If the profiles from the two repeats […]
set of 579 robust features out of the total of 1716 that was used for all further analyses.
The phenotypic profiles were compiled from the Z-scores of all individual cellular features, where the Z-score is a measure of how far away a data point is from a median value.
Specifically, Z-scores of test compounds were calculated relative to the Median of DMSO controls.
Thus, the Z-score of a test compound defines how many MADs (Median Absolute Deviations) the measured value is away from the Median of the controls as illustrated by the following formula:
z − score = […]
The phenotypic compound profile is then determined as the list of Z-scores of all features for one […]
(1 picture or pasted object on this page, not shown here)
In addition to the phenotypic profile, an induction value was determined for each compound as the […]
Induction [%] = number of features with abs. values > 3 […]

Row | SMILES | biosimilarity of UNC0638 and UNC0737 profiles (clustered together) | Biol.Sim. (%) (Conc 3.00 μM) | Cell Count (%) (Conc 3.00 μM) | Ind. (%) (% of parameters with significant changes) (Conc 3.00 μM) | Cell Count (%) (Conc 5.00 μM) | Ind. (%) (% of parameters with significant changes) (Conc 5.00 μM) | Biol.Sim. (%) (Conc 5.00 μM, morphological fingerprint similarity (no value printed for UNC0737 5 μM))
1 | COc1cc2c(NC3CCN(C(C)C)CC3)nc(C3CCCCC3)nc2cc1OCCCN1CCCC1 [UNC0638] | > 90% | 91% | 93% | 73% | 86% | 83% | 96%
2 | COc1cc2c(N(C)C3CCN(C(C)C)CC3)nc(C3CCCCC3)nc2cc1OCCCN1CCCC1 [UNC0737] | > 90% | 94% | 86% | 83% | 90% | 86% | –
